Source: ChEMBL document CHEMBL1127910, “Structural basis for the differential RXR & RAR activity of stilbene retinoid analogs” (Bioorg Med Chem Lett, 1994)

What was measured:
[1] = target: T1, Retinoic acid receptor RXR-alpha (Homo sapiens, UniProt P19793); experiment: Transcriptional activation for RXR alpha receptor
T1 sequence (P19793 whole entry): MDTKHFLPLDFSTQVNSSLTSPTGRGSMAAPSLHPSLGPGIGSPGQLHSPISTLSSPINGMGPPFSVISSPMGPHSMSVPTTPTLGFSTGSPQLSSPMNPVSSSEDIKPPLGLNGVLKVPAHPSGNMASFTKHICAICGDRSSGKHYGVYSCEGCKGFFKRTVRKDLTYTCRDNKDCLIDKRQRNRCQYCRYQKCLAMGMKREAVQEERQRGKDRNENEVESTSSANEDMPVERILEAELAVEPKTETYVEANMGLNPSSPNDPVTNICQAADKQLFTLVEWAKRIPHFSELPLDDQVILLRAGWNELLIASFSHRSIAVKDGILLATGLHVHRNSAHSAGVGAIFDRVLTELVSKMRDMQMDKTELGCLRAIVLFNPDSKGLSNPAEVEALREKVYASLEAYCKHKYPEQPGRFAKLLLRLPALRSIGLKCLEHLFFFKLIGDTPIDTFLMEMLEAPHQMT

[2] = target: T2, Retinoic acid receptor alpha (Homo sapiens, UniProt P10276); experiment: Transcriptional activation for RAR alpha receptor
T2 sequence (P10276 whole entry): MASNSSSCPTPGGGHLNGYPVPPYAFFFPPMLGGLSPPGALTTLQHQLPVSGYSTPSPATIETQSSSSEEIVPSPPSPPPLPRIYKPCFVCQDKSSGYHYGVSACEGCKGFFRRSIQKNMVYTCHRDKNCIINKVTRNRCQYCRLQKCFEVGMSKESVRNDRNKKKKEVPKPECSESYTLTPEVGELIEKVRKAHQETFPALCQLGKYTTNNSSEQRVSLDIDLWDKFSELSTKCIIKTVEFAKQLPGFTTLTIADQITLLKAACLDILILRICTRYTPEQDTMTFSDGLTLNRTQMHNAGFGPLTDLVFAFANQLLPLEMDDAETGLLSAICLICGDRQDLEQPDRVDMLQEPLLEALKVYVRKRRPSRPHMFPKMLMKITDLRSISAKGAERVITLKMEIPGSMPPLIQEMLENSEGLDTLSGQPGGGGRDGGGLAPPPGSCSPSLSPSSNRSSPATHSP

[3] = target: T3, Retinoic acid receptor beta (Homo sapiens, UniProt P10826); experiment: Transcriptional activation for RAR beta receptor
T3 sequence (P10826 whole entry): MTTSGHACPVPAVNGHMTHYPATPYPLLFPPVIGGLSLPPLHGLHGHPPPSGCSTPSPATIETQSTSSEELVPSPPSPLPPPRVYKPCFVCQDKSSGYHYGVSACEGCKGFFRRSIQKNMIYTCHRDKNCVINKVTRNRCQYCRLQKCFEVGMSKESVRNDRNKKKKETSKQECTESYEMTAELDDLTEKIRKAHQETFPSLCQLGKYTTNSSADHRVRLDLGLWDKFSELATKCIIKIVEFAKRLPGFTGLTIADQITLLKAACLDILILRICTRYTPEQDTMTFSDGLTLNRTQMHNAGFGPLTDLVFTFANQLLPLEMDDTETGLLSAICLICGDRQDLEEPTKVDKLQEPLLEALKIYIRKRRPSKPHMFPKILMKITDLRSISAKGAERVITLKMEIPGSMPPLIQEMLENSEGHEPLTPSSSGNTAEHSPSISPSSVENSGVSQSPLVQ

[4] = target: T4, Retinoic acid receptor gamma (Homo sapiens, UniProt P13631); experiment: Transcriptional activation for RAR gamma receptor
T4 sequence (P13631 whole entry): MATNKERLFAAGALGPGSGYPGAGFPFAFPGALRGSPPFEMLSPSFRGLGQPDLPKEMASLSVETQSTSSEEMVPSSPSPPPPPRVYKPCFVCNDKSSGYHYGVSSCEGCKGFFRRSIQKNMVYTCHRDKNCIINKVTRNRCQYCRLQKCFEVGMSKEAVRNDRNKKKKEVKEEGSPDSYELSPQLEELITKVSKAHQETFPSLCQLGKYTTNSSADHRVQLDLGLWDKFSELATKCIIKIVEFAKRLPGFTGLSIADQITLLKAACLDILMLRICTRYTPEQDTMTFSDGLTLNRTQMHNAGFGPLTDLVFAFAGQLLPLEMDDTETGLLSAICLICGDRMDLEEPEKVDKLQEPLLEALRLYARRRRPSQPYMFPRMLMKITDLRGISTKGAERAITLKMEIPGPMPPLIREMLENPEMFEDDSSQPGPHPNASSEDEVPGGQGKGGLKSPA

[5] = target: T2, Retinoic acid receptor alpha; experiment: Transcriptional activation for RAR alpha receptor; not active (EC50>10e4 nM)
[6] = target: T3, Retinoic acid receptor beta; experiment: Transcriptional activation for RAR beta receptor; not active (EC50>10e4 nM)
[7] = target: T4, Retinoic acid receptor gamma; experiment: Transcriptional activation for RAR gamma receptor; not active (EC50>10e4 nM)
[8] = target: T1, Retinoic acid receptor RXR-alpha

| SMILES | EC50 [1] | EC50 [2] | EC50 [3] | EC50 [4] | EC50 [5] | EC50 [6] | EC50 [7] | EC50 [8] |
| --- | --- | --- | --- | --- | --- | --- | --- | --- |
| C/C(=C\c1ccc(C(=O)O)cc1)c1cc2c(cc1Cl)C(C)(C)CCC2(C)C | 275 nM | > 1000 nM | 21 nM | 77 nM |  |  |  |  |
| CC(=Cc1ccc(C(=O)O)cc1)c1cc2c(cc1C)C(C)(C)CCC2(C)C | > 6400 nM |  |  |  | Not Active | Not Active | Not Active |  |
| CC1(C)CCC(C)(C)c2cc(/C=C/c3ccc(C(=O)O)cc3)ccc21 |  | 11 nM | 0.4 nM | 0.4 nM |  |  |  | Not Active |
| C/C(=C\c1ccc2c(c1)C(C)(C)CCC2(C)C)c1ccc(C(=O)O)cc1 |  | 24 nM | 0.5 nM | 0.4 nM |  |  |  | Not Active |
| Cc1cc2c(cc1/C=C/c1ccc(C(=O)O)cc1)C(C)(C)CCC2(C)C |  | 15 nM | 0.4 nM | 1.4 nM |  |  |  | Not Active |
| C/C(=C\c1ccc(C(=O)O)cc1)c1cc2c(cc1C)C(C)(C)CCC2(C)C | 385 nM | 4580 nM | 74 nM | 152 nM |  |  |  |  |
| C/C(=C\c1ccc(C(=O)O)cc1)c1cc2c(cc1Br)C(C)(C)CCC2(C)C | 298 nM | 989 nM | 21 nM | 91 nM |  |  |  |  |
| C/C(=C\c1ccc(C(=O)O)cc1)c1ccc2c(c1)C(C)(C)CCC2(C)C |  |  |  |  |  |  |  | Not Active |
| CCc1cc2c(cc1/C(C)=C/c1ccc(C(=O)O)cc1)C(C)(C)CCC2(C)C | 2220 nM |  | 961 nM | 195 nM | Not Active |  |  |  |
